How the values were obtained:
GcoA-F169A = molecular target: T1, GcoA-F169A (Amycolatopsis sp., UniProt P0DPQ7, F169A/H210Q); assay: Substrate dissociation constant (KD) by UV/vis spin-state titration; assay type: binding
T1 construct: GST (N, cleaved yes); made in house; host or cells: E. coli Rosetta 2 (DE3)
Procedure: Guaiacol (FIG. 1A) caused the Soret peak (λ=417 nm) of GcoA-F169A to shift to 387 nm, indicating the conversion of a low-spin to a high-spin species. Syringol (FIG. 1B) caused the Soret peak (λ=417 nm) of GcoA-F169A to shift to 387 nm, indicating the conversion of a low-spin to a high-spin species. 3MC (FIG. 1C) caused the Soret peak (λ=417 nm) of GcoA-F169A to shift to 387 nm, indicating the conversion of a low-spin to a high-spin species. 0-60 μM substrate was titrated into a solution containing 3 μM GcoA-F169A and air-saturated buffer (25 mM HEPES, 50 mM NaCl, pH 7.5, 25° C.) and the spectra monitored until there was no more change, indicating saturation. The solution reached equilibrium prior to each substrate addition. […] Error bars represent ±1 standard deviation of two or more runs.
Zero to 60 μM of guaiacol, syringol, or 3MC in 0.5 or 1 μM aliquots, were titrated into a cuvette containing 3 μM F169A GcoA in 25 mM HEPES, 50 mM NaCl, pH 7.5. The spectrum after each substrate addition was recorded, beginning with no substrate bound. The solution reached equilibrium before the next addition. A difference spectrum was made to illustrate the shift from a low-spin aquo-heme complex to the high-spin substrate-bound complex (spectral shift from 417 nm to 388 nm). […] The absorbance at 388 nm (AbS388-417 nm) was plotted as a function of [substrate], yielding a quadratic curve that was fit to equation (5) to determine the KD.
Where L0, Et, KD, and ΔAbsmax are the ligand concentrations, total protein (subunit) concentration, the equilibrium dissociation constant, and the maximum AbS388-417nm, respectively. Reported values are the average of 2 or more measurements.

GcoA-F169A and GcoB = molecular target: T2, GcoA-F169A and GcoB (Amycolatopsis sp., UniProt P0DPQ7, F169A/H210Q); assay: Uncoupling reactions: endpoint formaldehyde referenced to NADH consumed; assay type: biochemical; conditions: for % Formaldehyde produced: referenced to NADH consumed; for Coupling efficiency: GcoA-F169A-catalyzed reaction
T2 construct: GST (N, cleaved yes); made in house; host or cells: E. coli Rosetta 2 (DE3)
T2 sequence (P0DPQ7 whole entry F169A/H210Q): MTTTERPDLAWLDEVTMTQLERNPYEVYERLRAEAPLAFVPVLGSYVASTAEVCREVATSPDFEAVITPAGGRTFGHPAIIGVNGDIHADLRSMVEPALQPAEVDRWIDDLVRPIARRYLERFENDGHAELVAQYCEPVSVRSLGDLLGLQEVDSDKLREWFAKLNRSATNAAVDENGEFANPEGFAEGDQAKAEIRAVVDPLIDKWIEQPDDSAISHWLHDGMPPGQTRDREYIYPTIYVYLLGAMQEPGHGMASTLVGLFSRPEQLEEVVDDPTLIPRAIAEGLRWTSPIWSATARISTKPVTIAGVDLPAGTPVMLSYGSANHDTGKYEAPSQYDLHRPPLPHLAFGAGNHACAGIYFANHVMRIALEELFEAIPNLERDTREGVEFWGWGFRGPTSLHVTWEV
Procedure: The ^a in Table 3 notes that 0.2 μM GcoA-F169A and GcoB were reacted with 100 μg catalase, 100 or 200 μM NADH, and 100 μM substrate in 25 mM HEPES, 50 mM NaCl, pH 7.5, 25° C., 210 μM O2. Endpoint analyses were done to quantify formaldehyde produced, which was then referenced to NADH consumed. The ^b in Table 3 notes that the same reaction done above was repeated to quantify H2O2 produced using the Amplex Red/HRP assay. The amount of hydrogen peroxide was then referenced to NADH consumed.
Formaldehyde determination. A colorimetric assay using tryptophan can be used to quantify the amount of formaldehyde produced in F169 GcoA/B reactions with guaiacol, syringol, or 3MC. 0.2 μM each of F169 GcoA mutants and GcoB were dissolved in air-saturated buffer (25 mM HEPES, 50 mM NaCl) in a cuvette at pH 7.5, 25° C. 100 μg/mL catalase was added to each reaction to capture any H2O2 formed during the uncoupled reaction. Two hundred μM NADH was added and the background rate recorded. One hundred (guaiacol, syringol, or 3MC) or 200 (syringol) μM of substrate was then added and the reaction monitored until there was no more change, due to either substrate, NADH or O2 depletion, whichever occurred first. 200 μL of the reaction was then quenched by adding 200 μL of a 0.1% tryptophan solution in 50% ethanol and 200 μL of 90% sulfuric acid. Upon thorough mixing, 40 μL of 1% FeCl3 was added. The solution was then incubated in a heating block for 90 min at 70° C. After cooling, the absorbance was read at 575 nm and the concentration of formaldehyde was calculated by using ε575 nm=4.2 mM^−1 cm^−1, obtained with formaldehyde as a standard. A negative control included everything but the substrate and was used as a baseline.

T1 sequence (P0DPQ7 whole entry F169A/H210Q): as above

COc1cccc(OC)c1O [syringol, 2,6-dimethoxyphenol]
Kd (GcoA-F169A): 1.7 ± 0.07 µM
% Formaldehyde produced (GcoA-F169A and GcoB; 100 μM substrate + 100 μM NADH): 125 ± 6%
% Formaldehyde produced (GcoA-F169A and GcoB; 100 μM substrate + 200 μM NADH): 91 ± 8%

COc1ccccc1O [guaiacol, 2-methoxyphenol]
Kd (GcoA-F169A): 7.1 ± 0.1 µM
% Formaldehyde produced (GcoA-F169A and GcoB; 100 μM substrate + 100 μM NADH): 100 ± 10%
Coupling efficiency (GcoA-F169A and GcoB): 91±8%

COc1cccc(O)c1O [3MC, 3-methoxycatechol]
Kd (GcoA-F169A): 9.5 ± 0.02 µM
% Formaldehyde produced (GcoA-F169A and GcoB; 100 μM substrate + 100 μM NADH): 52 ± 7%
Coupling efficiency (GcoA-F169A and GcoB): 64±10%

Source: patent US11208642B2, “Microbial syringol utilization” (Alliance for Sustainable Energy, LLC, priority 2018, dated 2021)
